Data on 14 molecules can be found in patent US20250129086A1, “COMPOUND FOR DEGRADING EGFR PROTEIN AND USE THEREOF” (TYK MEDICINES, INC., priority 2021, published 2025).

A word on the IC50: it is the concentration that inhibits the measured activity by half. Lower therefore signals inhibition by little substance.

Common to all, as to format: cell-based, human
Assay [1] concerns HCC827 (exon 19 deletion mutation). The experiment in a line: Cell antiproliferative assay (CTG, 72 h), HCC827. The settings on record: Table 2, HCC827 cells. The procedure: (§1) Test Example 1 Cell Antiproliferative Assay
(§2) H1975: with EGFR: L858R/T790M double mutation; PC-9 with EGFR exon 19 deletion, HCC827 with exon 19 deletion mutation. CellCounting-Lite2.0, Trypsin EDTA, 37° C. CO2 incubator, cell counter, EnVision Serial No.1050454. II. Experimental preparation:
(§3) • (A) Trypsin EDTA was used to digest log-phase cells, medium was added to terminate the reaction, and a cell suspension was made by blowing and mixing with a pipette. • (B) Cell concentration was determined using Vi-cell, and a suspension of 15,000-25,000 cells per milliliter was made depending on the purpose of the experiment and the characteristics of the cells. • (C) After the cell suspension was prepared, it was gently mixed and 100 microliters per well was added so that the density of cells to be tested was 1500-2500 per well.
(§4) • (A) About 2 mg of compound was weighed, and the volume of DMSO required was calculated according to the formula: compound mass (mg)*compound purity (%)/compound molecular weight*1000 • (B) The inoculated cell culture plates were incubated in an incubator and the compounds with concentration gradient were added after about 24 hours. • (C)10 Mm of compound stock solution was diluted to […] with medium, and 50 Mm of compound solution was added sequentially to the second column of the deep-well plate, and […] of medium containing 0.5% DMSO was added to the third to eleventh columns. • (D) Gradient dilution: 125 μl of solution was pipetted from the second column and added to the third column, after mixing; another 125 μl of solution was pipetted from the third column and added to the fourth column, and the operation was repeated until the tenth column. • (E)25 μl of compound was pipetted from the deep-well plate into a 96-well culture plate using a multichannel pipette, and each compound was repeated three times on the 96-well plate. A maximum concentration of 10,000 nm with concentration gradient of 1:4 was eventually formed on the 96-well plate.
(§5) • (A)96-well plates were incubated in an incubator for 72 h. The effect of the compounds was observed under an inverted microscope. • (B)25 μl of CTG solution was added to each well, the plate was put on shaker for 10 minutes and the […] of each well was read.
(§6) The cell viability rate (% Cell Viability) was calculated using the following formula: • % Cell Viability=100%×(Lum_Sample-Lum_LC)/(Lum_HC-Lum_LC) • Lum_HC: Cell reading of 0.1% DMSO control • Lum_Sample: Cell reading with compound added • Lum_LC: Reading of Blank media • IC50 values were obtained by curve fitting with GraphPad Prism 8 software.

In assay [2] the test system is PC-9 (EGFR exon 19 deletion). The assay is described as follows: Cell antiproliferative assay (CTG, 72 h), PC-9. The settings on record: Homo sapiens, PC-9, 72 h, Table 2, PC-9 cells. The procedure: as §1, §2, §3, §4, §5, §6
Assay [3] concerns H1975 (EGFR L858R/T790M double mutation). The assay is described as follows: Cell antiproliferative assay (CTG, 72 h), H1975. The settings on record: Homo sapiens, NCI-H1975, 72 h, Table 2, H1975 cells. Here is the method:
as §1, §2, §3, §4, §5, §6

As to `CNC(=O)c1ccccc1Nc1nc(Nc2cc(C)c(N3CCN(C(=O)CN4CCC(c5ccc(NC6CCC(=O)NC6=O)cc5)CC4)C(C)C3)cc2OC)ncc1C(F)(F)F` (stereo not drawn) [Compound T-357], the IC50 in assay [1] (Homo sapiens, HCC827, 72 h) was in the range of 10 to 100 nM; in assay [2], 10 to 100 nM; in assay [3], 10 to 100 nM.
`C=CC(=O)Nc1cc(Nc2nccc(-c3cn(C)c4ccccc34)n2)c(OC)cc1N(C)CCN(C)CC(=O)N1CCC(c2ccc(NC3CCC(=O)NC3=O)cc2)CC1` (stereo not drawn) [Compound T-237]: the IC50 in assay [1] (Homo sapiens, HCC827, 72 h) is 100 to 1000 nM; in assay [2] it was 100 to 1000 nM; in assay [3], at least 1000 nM.
On to `COc1cc(N2CCN(C(=O)CC3CCN(c4ccc5c(c4)C(=O)N(C4CCC(=O)NC4=O)C5=O)CC3)CC2)ccc1Nc1ncc(Cl)c(Nc2ccccc2C(C)=O)n1` (stereo not drawn) [Compound T-231], for which the concentration for half-maximal inhibition (IC50) was 10 to 100 nM in assay [1] (Homo sapiens, HCC827, 72 h); at least 1000 nM in assay [2]; 100 to 1000 nM in assay [3].
The like results for `COc1cc(N2CCN(C(=O)CN3CCC(c4ccc(NC5CCC(=O)NC5=O)cc4)CC3)CC2)c(C#N)cc1Nc1ncc(Cl)c(Nc2ccccc2C(C)=O)n1` (stereo not drawn) [Compound T-282] were, in that order, 10 to 100 nM, 10 to 100 nM and 10 to 100 nM.
As to `COc1cc(N2CCN(C(=O)CN3CCC(c4ccc(NC5CCC(=O)NC5=O)cc4)CC3)CC2)ccc1Nc1ncc(C(F)(F)F)c(Nc2ccc(F)cc2)n1` (stereo not drawn) [Compound T-51], the results for the half-maximal inhibitory concentration (IC50) in assay [1], in assay [2] and in assay [3] were at least 1000 nM, at least 1000 nM and 10 to 100 nM, respectively.
Regarding `CNC(=O)c1ccccc1Nc1nc(Nc2cc(C)c(N3CCN(C(=O)CN4CCC(c5ccc(NC6CCC(=O)NC6=O)cc5)CC4)CC3C)cc2OC)ncc1Br` (stereo not drawn) [Compound T-359], the concentration for half-maximal inhibition (IC50) was in the range of 10 to 100 nM in assay [1] (Homo sapiens, HCC827, 72 h); 10 to 100 nM in assay [2]; 10 to 100 nM in assay [3].
With `CNC(=O)c1ccccc1Nc1nc(Nc2ccc(N3CCN(C(=O)CC4(F)CCN(c5ccc(NC6CCC(=O)NC6=O)cc5)CC4)CC3)cc2OC)ncc1Cl` (stereo not drawn) [Compound T-300], the 50% inhibitory concentration (IC50) in assay [1] (Homo sapiens, HCC827, 72 h) lay within 10 to 100 nM; in assay [2] it was 10 to 100 nM; in assay [3], 10 to 100 nM.
On to `C=CC(=O)Nc1cc(Nc2ncc(C(F)(F)F)c(Nc3ccccc3)n2)c(OC)cc1N1CCN(C(=O)CN2CCC(c3ccc(NC4CCC(=O)NC4=O)cc3)CC2)CC1` (stereo not drawn) [Compound T-339], for which the concentration for half-maximal inhibition (IC50) in assay [1] (Homo sapiens, HCC827, 72 h) was 100 to 1000 nM; in assay [2] it was 100 to 1000 nM; in assay [3], 100 to 1000 nM.
`COc1ccc(Nc2nc(Nc3ccc(N4CCN(C(=O)CN5CCC(c6ccc(NC7CCC(=O)NC7=O)cc6)CC5)CC4)cc3OC)ncc2Cl)c(C(C)=O)c1` (stereo not drawn) [Compound T-249]: the IC50 in assay [1] (Homo sapiens, HCC827, 72 h) is 10 to 100 nM; in assay [2] it was 10 to 100 nM; in assay [3] it was at most 10 nM.
With `CC(=O)c1ccccc1Nc1nc(Nc2ccc(N3CCN(C(=O)CN4CCC(c5ccc(NC6CCC(=O)NC6=O)cc5)CC4)CC3)cc2OC(C)C)ncc1Cl` (stereo not drawn) [Compound T-179], the IC50 is at least 1000 nM in assay [1] (Homo sapiens, HCC827, 72 h); at least 1000 nM in assay [2]; 100 to 1000 nM in assay [3].
In the case of `CNC(=O)c1ccccc1Nc1nc(Nc2cc(C)c(N3CCN(C(=O)CN4CCC(c5ccc(NC6CCC(=O)NC6=O)cc5F)CC4)CC3)cc2OC)ncc1Br` (stereo not drawn) [Compound T-368], the IC50 was in the range of 10 to 100 nM in assay [1] (Homo sapiens, HCC827, 72 h); 10 to 100 nM in assay [2]; 10 to 100 nM in assay [3].
As to `CNC(=O)c1ccccc1Nc1nc(Nc2ccc(N3CCN(C(=O)CN4CCC(c5ccc(NC6CCC(=O)NC6=O)cc5F)CC4)CC3)cc2OC)ncc1Br` (stereo not drawn) [Compound T-295], the IC50 was 10 to 100 nM in assay [1] (Homo sapiens, HCC827, 72 h); 10 to 100 nM in assay [2]; at most 10 nM in assay [3].
With `COc1cc(C2CCN(C(=O)CN3CCC(c4ccc(NC5CCC(=O)NC5=O)cc4)CC3)CC2)ccc1Nc1ncc(Cl)c(Nc2ccccc2P(C)(C)=O)n1` (stereo not drawn) [Compound T-331], the IC50 was at least 1000 nM in assay [1] (Homo sapiens, HCC827, 72 h); 100 to 1000 nM in assay [2]; 100 to 1000 nM in assay [3].
Regarding `COc1cc(N2CCN(C(=O)CN3CCC(c4ccc(NC5CCC(=O)NC5=O)nc4)CC3)CC2)ccc1Nc1ncc(Cl)c(Nc2ccccc2C(C)=O)n1` (stereo not drawn) [Compound T-100], the 50% inhibitory concentration (IC50) in assay [1] (Homo sapiens, HCC827, 72 h) fell in the range of 100 to 1000 nM; in assay [2] it was 100 to 1000 nM; in assay [3], 100 to 1000 nM.
